# Where a name gives a salt, the structure may show the parent alone.
# Tests used:
# [1] = test system: production of TNF-α by macrophages from mouse peritoneal cavity; assay: production of TNF-α by macrophages from mouse peritoneal cavity (LPS, L929 bioassay); type: cell-based; details: Macrophage, LPS 10 μg·ml^−1, 24 hr, read-out: IC50, inhibition of the production of TNF-α
# Method: The macrophages from mouse peritoneal cavity were prepared as described before. 500 μl of cells were inoculated in 48-well plate which was incubated with 5% CO2 at 37° C. for 2.5 hr. The compounds and LPS (final concentration: 10 μg·ml^−1) were added into each well of the plate. After incubating for 24 hr the supernatant was collected. The content of TNF-α was determined by following method. 100 μl of L929 cells (2×10^5cells·ml^−1) with 100 μl of RPMI-1640 or supernatant collected above were inoculated into 96-well plate which incubated under 5% CO2 at 37° C. for 20 hr. The supernatant was discarded. 200 μl of 0.5% crystal violet was added into each well. 10 min later crystal violet outside of the cells was rinsed using normal saline. The cells were dried under room temperature. 100 μl of 10% SDS was added into each well. After the cells were lysed completely the optical density was measured at 570 nm. The well of 1640 media was as the control, The content of TNF-a was evaluated by the percentage of L929 cells survival.
# [2] = test system: production of NO in macrophages from mouse peritoneal cavity; assay: production of NO in macrophages from mouse peritoneal cavity (LPS and PAF); type: cell-based; details: Macrophage, costimulated by LPS (1×10^−9 mol·L^−1) and PAF (1×10^−6 mol·L^−1), 24 hr, read-out: IC50, inhibition of the production of NO
# Method: 4% of sodium mercaptoethanol was injected into C57BL/6 mouse peritoneal cavity to induce macrophages. The cells in peritoneal cavity were collected after injection for 3-4 days. 500 μl of cells were inoculated in the well of 24 wells plate which was placed in the CO2 incubator at 37° C. for 2.5 hr to make the cells adherent. The cells were rinsed by 1640 culture media. 495 μl of 1640 media containing irritant and 5 μl the compound or solvent were added into each well. The plate was incubated for 24 hr. The supernatant was taken out and mixed with the same volume of Griess agent. The reaction fluid was kept at room temperature for 10 min and the optical density was measured at 550 nm. The numbers read was transferred into the content of NO.
# [3] = test system: mouse ear edema induced by croton oil; assay: mouse ear edema induced by croton oil; type: in vivo; details: orally, 50 mg·kg^−1, Kunming mice
# TNF-α in serum = TNF-α in serum of rat with arthritis induced by type II collagen (ELISA); type: in vivo; details: Dose 100 mg · kg^−1 × 13 d, orally
# Method: (§1) 0.1 ml of type II H collagen (2 mg·ml^−1) was intracutaneously injected into the hind foot of Wistar rat (male, 100±10 g) (d0). Seven days later 0.1 ml of type II collagen was intracutaneously injected into the root of tail. At 19th day (d19) the animals inflamed were selected to supply the experiment and randomly divided into two groups. […] The perimeter of the ankle joint of two hind feet, weight of body was measured and the systemic inflammation (including the toes of front and hind feet, ears and tails) was judged by scoring every 3 days. At 41th day 40 μl of 0.2% type II collagen was intracutaneously injected into the right ear. Twenty-four hr later the edema level was evaluated by weighing the ponderance of ear piece (diameter: 8 mm). At 42th day the blood was collected by decapitating. The serum was separated by centrifugating. The contents of antibody for anti-type II collagen, cytokine TNF-α, IL-1β in serum were determined by ELISA kit.
# [4] = test system: rat paw swelling induced by carrageenan; assay: rat paw swelling induced by carrageenan; type: in vivo; details: orally, 100 mg·kg^−1, Wistar rats
# Method: Wistar rats (male, 180±20 g) were randomly divided into two groups (treatment and control) with 10 animals for each group. The animals were orally administrated with the compound or solvent, respectively. 1 hr later, 100 μl of 1% carrageenan was intracutaneously injected into the sole of right posterior foot. The perimeter of the ankle joint inflamed was measured at indicated time. The swelling level was evaluated by the difference of perimeters between the inflamed foot and non-inflamed foot.
# [5] = test system: mouse paw swelling induced by carrageenan; assay: mouse paw swelling induced by carrageenan; type: in vivo; details: orally, 50 mg·kg^−1, Kunming mice
# Method: Kunming mice (male, 18-22 g) were randomly divided into two groups (treatment and control) with 10 animals for each group. The animals were orally administrated with compounds or solvent, respectively. 1 hr later, 50 μl of 1% carrageenan was intracutaneously injected into the sole of right posterior foot. After 4 hr the animals were sacrificed by displacing cervical vertebra. The two paws were cut off at ankle joint and weighed. The swelling was evaluated by the difference of the weights of two paws.
# IL-1β in serum = IL-1β in serum of rat with arthritis induced by type II collagen (ELISA); type: in vivo; details: Dose 100 mg · kg^−1 × 13 d, orally
# Method: as §1, with “At 19th day (d19) the animals inflamed were selected to supply the experiment and randomly divided into two groups.” left out
# [6] = test system: cutaneous vascular permeability in mice induced by PAF; assay: increase of cutaneous vascular permeability in mice induced by PAF; type: in vivo, mouse; details: orally, 50 mg·kg^−1, Kunming mice
# [7] = test system: delayed hypersensitivity in rats; assay: delayed hypersensitivity in rats (type II collagen ear challenge); type: in vivo, rat; details: Dose 100 mg · kg^−1 × 13 d, orally
# Method: as §1
structure (smiles),measurement,setting,value
"CCOC(=O)C1CCN(CCC(=O)/C=C/c2ccc(Cl)cc2)CC1 [Compound 3, 5-[(4-Ethoxycarbonyl)piperidyl]-1-(4-chlorophenyl)-1-penten-3-one hydrochloride]",IC50,[1],34 nM
same,IC50,[2],225 nM
same,Inhibition (%) of mouse ear edema,[3],33.52%
same,inhibition (%) of production of TNF-α in serum,TNF-α in serum,49.3%
same,Inhibition (%) of rat paw swelling,[4]; 1 h,49.7%
same,Inhibition (%) of rat paw swelling,[4]; 2 h,55.5%
same,Inhibition (%) of rat paw swelling,[4]; 3 h,44.2%
same,Inhibition (%) of rat paw swelling,[4]; 4 h,29.0%
same,Inhibition (%) of rat paw swelling,[4]; 5 h,19.4%
same,Inhibition (%) of mouse paw swelling,[5],32.52%
same,Inhibition (%) of production of IL-1β in serum,IL-1β in serum,45.7%
same,Inhibition (%) of increase of cutaneous vascular permeability,[6],53.23%
same,Inhibition (%) of delayed hypersensitivity,[7],21.2%
